According to US10815200B2, “18F—tagged inhibitors of prostate specific membrane antigen (PSMA) and their use as imaging agents for prostate cancer” (DEUTSCHES KREBSFORSCHUNGSZENTRUM, priority 2015, dated 2020):

Columns and labels:
[1] = system: LNCaP cells; assay: Specific cell uptake and internalization in LNCaP cells; type: cell-based, human; details: for Cell surface / Internalised: 30 nM radiolabeled compound, 45 min, 37° C., specific (PMPA block); for Internalized fraction: (Internalized activity/total activity)*100
Description: During cell culture, cells were grown at 37° C. in an incubator with humidified air, equilibrated with 5% CO2. […] To determine the specific cell uptake and internalization, 10^5 cells were seeded in poly-L-lysine coated 24-well cell culture plates 24 h before incubation. After washing, the cells were incubated with 30 nM of the radiolabeled compounds for 45 min at 37° C. […] Cellular uptake was terminated by washing 3 times with 1 mL of ice-cold PBS. […] The cells were washed with 1 mL of ice-cold PBS and lysed using 0.3 N NaOH (0.5 mL). The surface-bound and the internalized fractions were measured in a gamma counter. The cell uptake was calculated as percent of the initially added radioactivity bound to 10^5 cells [% ID/10^5 cells].

[2] = system: LNCaP tumor (PSMA positive); type: in vivo, mice
Description: (§1) For in vivo experiments, 8 week old BALB/c nu/nu mice were subcutaneously inoculated into the right trunk with 5×10^6 LNCaP- or PC3-cells in 50% Matrigel. When the size of tumor was approximately 1 cm^3, the radiolabeled compound was injected via the tail vein (ca. 30 MBq, 60 pmol for μPET imaging; ca. 1 MBq, 60 pmol for organ distribution).
(§2) The F-18 labeled compounds were injected via tail vein (1-2 MBq per mouse; 60 pmol). At 1 h after injection, the animals were sacrificed. Organs of interest were dissected, blotted dry, and weighed. The radioactivity was measured with a gamma counter (Packard Cobra II, GMI, Minnesota, USA) and calculated as % ID/g.

[3] = system: PC3-tumor (PSMA negative); assay: Organ distribution in mice carrying a PC3-tumor (PSMA negative); type: in vivo
Description: as §1, §2

[4] = system: LNCaP tumor xenografts; assay: MicroPET in mice bearing LNCaP tumor xenografts; type: in vivo; details: 120-140 min p.i.
Description: For the microPET studies, 10-25 MBq of the radiolabeled compounds in a volume of 0.10 ml (60 pmol) were injected via a lateral tail vein into mice bearing LNCaP tumor xenografts. The anesthetized animals (2% sevoflurane, Abbott, Wiesbaden, Germany) were placed in prone position into the Inveon small animal PET scanner (Siemens, Knoxville, Tenn., USA) to perform dynamic microPET scans.
as §1

[5] = PET/CT dosimetry and kinetics in a healthy volunteer; type: in vivo, human
Description: The healthy subject was injected a total activity of 300 MBq and subsequently PET scans were performed on a Biograph mCT Flow scanner (Siemens, Erlangen, Germany) in three blocks. Block 1 contained PET-1 (start 5 min p.i.) to PET-7 (ending 140 min p.i.), block 2 contained PET-8 (start 180 min p.i.) and PET-9 (240-270 min p.i.), block 3 contained PET-10 (440-480 min p.i.). A non-enhanced low-dose CT (estimate 1.43 mSv, respectively) for attenuation correction was performed at the beginning of each block, followed by serial emission scans without moving the volunteer in between.
Kidneys, liver, spleen, whole heart, upper and lower large intestine, parotid glands, submandibular glands and urinary bladder were segmented into volumes of interest (VOIs) using a percentage of maximum threshold between 20% and 30% using the corresponding CT as guidance and then time activity curves (TACs) were calculated for all organs. The TAC for red marrow was derived from the venous blood samples and then the dose for the red marrow calculated (S. Shen et al., JNM 2002, 43, 1245-1253; G. Sgouros et al., JNM 1993, 34, 689-694.). The TAC for the urinary bladder content was a combination of estimated activity in the urinary bladder VOI in PET and activity measured in the voided urine. Curve fitting was applied to all TACs. Kidneys, salivary glands, upper and lower large intestine and heart were fitted with a bi-exponential function. For liver, spleen and urinary bladder content a mono-exponential fit to the last three time points was performed.
Absorbed and effective dose calculations were performed using the ICRP endorsed IDAC 1.0 package which is integrated in QDOSE. Additionally, residence times of all included source organs and remainder body were exported as an OLINDA case file for dose calculation (OLINDA 1.1). The absorbed doses to the salivary glands (parotid and submandibular glands) were determined using the spherical model. The organ masses for the salivary glands were estimated with 25 g for a parotid and 12.5 g for a submandibular gland (ICRP publication 89).

[6] = system: prostate cancer; assay: First-in-man PET study in patients suffering from prostate cancer, with histopathology correlation; type: in vivo, human
Description: Ten patients (age 60-80 years) suffering from a newly diagnosed high-risk prostate cancer with a gleason score of 7-9 and initial PSA levels of 5-90 ng/ml were injected 100-360 MBq [^18F]-PSMA-1007 and subsequently PET scans were performed on a Biograph mCT Flow scanner (Siemens, Erlangen, Germany) at 1 and 3 h p.i. The results are depicted in FIGS. 17 and 18 as mean values of the SUVmean and SUVmax, respectively. The pictures gained with the PET scans are exemplified in FIGS. 19 and 20 as maximum intensity projections.
Eight of the patients underwent radical prostatectomy with extended pelvic lymphadenectomy. Analyses of prostatectomy specimen were performed blinded to PET-data under the supervision of dedicated uropathologists, according to International Society of Urological Pathology standards (T. H. van der Kwast et al. Mod. Phathol. 2011, 24, 16-25). Representative sections were stained by immunohistochemistry. The sections were deparaffinized in xylene and rehydrated in a graded ethanol series. Antigen retrieval was performed with a steam cooker using retrieval buffer (Target Retrieval Solution, Dako). A mouse monoclonal antibody against PSMA (clone 3E6, Dako) was used at a 1:100 dilution and incubated overnight at 4° C. ad subsequently immunodetection was performed using the Histostain-Plus detection kit (Invitrogen). Stained sections were scanned using a Nanozoomer 2.0-HT Scansystem (Hamamatsu Photonics) to generate digital whole slide images.

[7] = molecular target: T1, PSMA (Homo sapiens, UniProt Q04609); assay: Competitive cell binding assay (binding affinity) on LNCaP cells against 68Ga-labeled [Glu-urea-Lys(Ahx)]2-HBED-CC; details: competition with 68Ga-labeled [Glu-urea-Lys(Ahx)]2-HBED-CC, non-radioactive reference compounds
T1 construct: host or cells: LNCaP cells
Description: For binding studies and in vivo experiments LNCaP cells (metastatic lesion of human prostatic adenocarcinoma, ATCC CRL-1740) were cultured in RPMI medium supplemented with 10% fetal calf serum and Glutamax (PAA, Austria). During cell culture, cells were grown at 37° C. in an incubator with humidified air, equilibrated with 5% CO2. The cells were harvested using trypsin-ethylenediaminetetraacetic acid (trypsin-1.5 EDTA; 0.25% trypsin, 0.02% EDTA, all from PAA, Austria) and washed with PBS.
The competitive cell binding assay and internalization experiments were performed as described previously (Eder et al. Bioconjugate Chem. 2012, 23 (4), 688-697). Briefly, the respective cells (10^5 per well) were incubated with the radioligand (^68Ga-labeled [Glu-urea-Lys(Ahx)]2-HBED-CC (Schafer et al. EJNMMI Research 2012, 2:23 doi:10.1186/2191-219X-2-23))) in the presence of 12 different concentrations of analyte (0-5000 nM, 100 μL/well). After incubation, washing was carried out using a multiscreen vacuum manifold (Millipore, Billerica, Mass.). Cell-bound radioactivity was measured using a gamma counter (Packard Cobra II, GMI, Minnesota, USA). The 50% inhibitory concentration (IC50) was calculated by fitting the data using a nonlinear regression algorithm (GraphPad Software). Experiments were performed three times. Reference is made to Table A below.

T1 sequence (Q04609 whole entry): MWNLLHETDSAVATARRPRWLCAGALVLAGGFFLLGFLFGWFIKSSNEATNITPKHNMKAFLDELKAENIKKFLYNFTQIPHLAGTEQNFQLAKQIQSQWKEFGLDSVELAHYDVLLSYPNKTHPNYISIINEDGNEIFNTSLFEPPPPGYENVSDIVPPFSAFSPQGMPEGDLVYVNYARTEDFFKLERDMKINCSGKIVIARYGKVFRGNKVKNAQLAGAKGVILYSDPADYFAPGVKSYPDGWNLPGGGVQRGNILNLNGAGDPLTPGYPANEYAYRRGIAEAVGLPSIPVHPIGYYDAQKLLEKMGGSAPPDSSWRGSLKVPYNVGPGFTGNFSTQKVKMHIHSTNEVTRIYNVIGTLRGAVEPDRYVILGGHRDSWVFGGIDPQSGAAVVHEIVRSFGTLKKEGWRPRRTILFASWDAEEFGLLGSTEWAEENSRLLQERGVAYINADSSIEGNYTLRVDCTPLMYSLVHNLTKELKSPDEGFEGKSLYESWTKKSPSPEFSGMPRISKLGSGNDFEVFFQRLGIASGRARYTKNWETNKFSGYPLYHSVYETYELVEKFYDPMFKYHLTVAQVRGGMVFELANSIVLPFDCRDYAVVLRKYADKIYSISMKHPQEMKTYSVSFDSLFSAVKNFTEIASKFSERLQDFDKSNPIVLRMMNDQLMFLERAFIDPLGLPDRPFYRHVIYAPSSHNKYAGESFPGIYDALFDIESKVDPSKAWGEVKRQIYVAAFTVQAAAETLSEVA

O=C(O)CCC(NC(=O)NC(CCCCNC(=O)C(Cc1ccc2ccccc2c1)NC(=O)c1ccc(CNC(=O)C(CCC(=O)O)NC(=O)C(CCC(=O)O)NC(=O)c2ccc([18F])nc2)cc1)C(=O)O)C(=O)O (stereo not shown) [PSMA-1007, (Glu)-(Urea)-(Lys)-(2-Nal)-(Bn)-(Glu)-(Glu)-FN]
Cell surface [1]: 2.7 % ID/10^5 cells | Internalised [1]: 6.5 % ID/10^5 cells | Internalized fraction [1]: 71% | blocking of tumor binding in the blocking experiment ([2]; LNCaP tumor mice with PMPA block): a quantitative blocking of the binding was not observed | tumor uptake ([2]; LNCaP tumor mice, 1 h after injection, non-blocked): about 8.0±2.4 % ID/g | uptake in non-target tissue such as the liver and the small intestine ([2]; mouse, in vivo): significantly reduced uptake | tumor uptake [3]: practically no tumor uptake was observed | SUVmax of LNCaP tumor [4]: 3.1 | effective dose of a PET/CT scan ([5]; 200-250 MBq, healthy volunteer): 4.3-5.4 mSv | blood pool activity found in the serum ([5]; healthy volunteer): More than 95% | effective dose per injected activity ([5]; healthy volunteer): 0.0215 mSv/MBq | clearance pathway ([5]; in comparison to other known PSMA-tracers): very unique hepatobiliary clearance with very small clearance via the renal pathway | clearance from the blood pool ([5]; within the first 3 h after injection, healthy volunteer): more than 90% | correlation of prostatectomy histopathology with PET images [6]: nearly perfect correlation | diameter of detected lymph node metastases [6]: ≥ 1 mm | specificity (correlation with pelvic lymphadenectomy samples) [6]: 95% | tumor-to-background ratios in the primary tumor ([6]; calculated from SUVmax): up to 10

O=C(O)CC[C@@H](NC(=O)N[C@H](CCCCNC(=O)[C@@H](Cc1ccc2ccccc2c1)NC(=O)[C@@H](CCC(=O)O)NC(=O)[C@@H](CCC(=O)O)NC(=O)c1ccnc(F)c1)C(=O)O)C(=O)O [PSMA-1011, (Glu)-(Urea)-(Lys)-(2-Naphthylalanine)-(Glu)-(Glu)-FN]
IC50 [7]: 7 nM

O=C(O)CCC(NC(=O)NC(CCCCNC(=O)C(Cc1ccc2ccccc2c1)NC(=O)CCC(NC(=O)CCC(NC(=O)c1ccc(F)nc1)C(=O)O)C(=O)O)C(=O)O)C(=O)O (stereo not shown) [PSMA-1022, (Glu)-(Urea)-(Lys)-(2-Nal)-(γGlu)-(γGlu)-FN]
IC50 [7]: 8 nM

O=C(O)CCC(NC(=O)NC(CCCCNC(=O)C(Cc1ccc2ccccc2c1)NC(=O)c1ccc(CNC(=O)C(CNC(=O)c2ccc(F)nc2)S(=O)(=O)O)cc1)C(=O)O)C(=O)O (stereo not shown) [PSMA-1026, (Glu)-(Urea)-(Lys)-(2-Nal)-(Bn)-(Sala)-FN]
IC50 [7]: 14 nM

(Glu)-(Urea)-(Lys)-(2-Nal)-(Bn)-(Gla)-FN [PSMA-1025]
IC50 [7]: 9 nM | Cell surface [1]: 4.3 % ID/10^5 cells | Internalised [1]: 3.1 % ID/10^5 cells | Internalized fraction [1]: 42%

O=C(O)CCC(NC(=O)NC(CCCCNC(=O)C(Cc1ccc2ccccc2c1)NC(=O)c1ccc(CNC(=O)C(CNC(=O)C(CNC(=O)c2ccc(F)nc2)S(=O)(=O)O)S(=O)(=O)O)cc1)C(=O)O)C(=O)O (stereo not shown) [PSMA-1027, (Glu)-(Urea)-(Lys)-(2-Nal)-(Bn)-(Sala)-(Sala)-FN]
IC50 [7]: 7 nM
